# Where “and” joins values, the source holds several entries; their conditions need not be identical. Identical values can stand only once. Entries after “also recorded” stand apart in the source; their conditions may differ.
# What was measured:
# 5xFAD mice = assay: Novel object recognition in 5xFAD mice; format: in vivo, mouse; design: key: (novel − familiar)/(novel + familiar) exploration time, −1 to 1; conditions: 5xFAD 1 month
# Experimental: We next aimed to test the effect of QR2 inhibition in AD model mice using YB-537, taking advantage of its extremely high specificity, solubility, and lack of toxicity. First, we determined YB-537 pharmacokinetics (PK) and oral bioavailability and assessed any acute observable toxicity in mice. […] We therefore opted to chronically deliver YB-537 to AD-model mice via their drinking water, so they may freely ingest the inhibitor at 50 mg/kg, with minimal intervention or trauma, for 1 month. We chose 9-month-old 5xFAD ([27]) male and female mice in double-blind experiments, so that well-progressed symptoms and pathologies would be present, to mimic clinically relevant cases in human patients ([35]), as has been previously described in this mouse model. Other than an improvement in nest quality ([36]) over time seen in animals receiving YB-537 (starting at age 8 months and ending at age 9 months), no changes to general physical parameters or wellbeing were observed over the 1 month of YB-537 ingestion (Supplemental Figure 6, A–J). […] Since learning in this paradigm was slow, and performance was poor even following 6 days of training (using 4 learning trials a day), a test day was not carried out and instead only the learning rate was measured. […]
# Following a 10 minute exploration of a 50 × 50 cm open-field arena, mice were returned to the arena the next day, which contained 2 identical objects. […] Mouse movement, exploration, and nuzzling was automatically recorded with an Ikegami ICD-49E camera with EthoVision 14 (Noldus Information Technology). Discrimination of the novel object was assessed by calculating (time exploring novel object – time exploring familiar object)/(time exploring novel object + time exploring familiar object). […]
# Mice were individually placed within a cage and taken to a dimly lit room containing an open field arena 50 x 50 cm in size. […] Th e fl oor was ei ther whit e or black,dependingon mous e coat c ol or, to allow automatic analysisof movement par am et ers, apar t from rearing which was manually counted. […]
# [1] = Solubility in water / saline; format: physicochemical
structure (smiles),measurement,setting,value
Cc1ccc(-c2cn3cccc(C)c3n2)cc1S(=O)(=O)N1CCNCC1 [YB-537],novel object discrimination (individual mice),5xFAD mice; both sexes,-0.101 and 0.504 and 0.236 and 0.249 and -0.330 and 0.874 and 0.145 and -0.163 and -0.038 and -0.010 and 0.265 and -0.414 and 0.439 and 0.710 and 0.259 and 0.231
same,novel object discrimination (individual mice),5xFAD mice; females,0.504 and 0.236 and 0.439 and 0.710 and 0.259 and 0.231 and -0.101
same,novel object discrimination (individual mice),5xFAD mice; males,-0.038 and -0.010 and 0.265 and -0.414 and 0.249 and -0.330 and 0.874 and 0.145 and -0.163
same,solubility in water,[1],complete solution; also recorded: water soluble
same,solubility in saline vehicle,"[1]; PK formulations 2 and 10 mg/ml, HCl salt",fully dissolved

# From PMC10541198, “Specific quinone reductase 2 inhibitors reduce metabolic burden and reverse Alzheimer’s disease phenotype in mice” (The Journal of Clinical Investigation, 2023)
